Test results from patent US20060069132A1, “Azolecarboxamide herbicides” (priority 2004, published 2006).

Legend:
canarygrass = test: Test C postemergence herbicide test; type: in vivo, Phalaris minor
Method in brief: (§1)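 Postemergence sprays applied to plants 2 to 18 cm tall (1- to 4-leaf stage); paddy species grown to 2-leaf stage under flooding. After 12 to 14 days in greenhouse, visual rating versus untreated controls on 0–100 scale (0 no effect, 100 complete control).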

winter barley = test: Test C postemergence herbicide test; type: in vivo, Hordeum vulgare
Method in brief: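 Plants were grown to the 1- to 4-leaf stage (2–18 cm) and then treated postemergence, or grown to the 2-leaf stage for the flooded paddy test. They were held in a greenhouse for 12 to 14 days and then scored by eye against controls, where 0 is no effect and 100 is complete control.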

windgrass = test: Test C postemergence herbicide test; type: in vivo, Apera spica-venti
Method in brief: as §1

downy bromegrass [1] = test: Test C postemergence herbicide test; type: in vivo, Bromus tectorum
Method in brief: as §1

dallisgrass = test: Test E pre-/postemergence herbicide test; type: in vivo, Paspalum dilatatum
Method in brief: (§2)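 Greenhouse whole-plant test: compounds formulated in a non-phytotoxic solvent mixture with surfactant were applied preemergence to planted seeds and, concurrently, postemergence to plants 2 to 18 cm tall. Response was scored visually after 12 to 14 days, 0 meaning no effect and 100 complete control.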

large crabgrass = test: Test E pre-/postemergence herbicide test; type: in vivo, Digitaria sanguinalis
Method in brief: as §2

common sowthistle = test: Test E pre-/postemergence herbicide test; type: in vivo, Sonchus oleraceous
Method in brief: as §2

southern sandbur = test: Test E pre-/postemergence herbicide test; type: in vivo, Cenchrus echinatus
Method in brief: as §2

annual bluegrass = test: Test E pre-/postemergence herbicide test; type: in vivo, Poa annua
Method in brief: as §2

common mallow = test: Test E pre-/postemergence herbicide test; type: in vivo, Malva sylvestris
Method in brief: as §2

downy bromegrass [2] = test: Test E pre-/postemergence herbicide test; type: in vivo, Bromus tectorum
Method in brief: as §2

green foxtail = test: Test E pre-/postemergence herbicide test; type: in vivo, Setaria viridis
Method in brief: as §2

pitted morningglory = test: Test E pre-/postemergence herbicide test; type: in vivo, Ipomoea lacunosa
Method in brief: as §2

[3] = Postemergence, 250 g ai/ha, scale 0 to 100, 0 no effect, 100 complete control
[4] = postemergence, 125 g ai/ha, scale 0 to 100
[5] = postemergence, 31 g ai/ha, scale 0 to 100
[6] = postemergence, 62 g ai/ha, scale 0 to 100
[7] = Postemergence, 125 g ai/ha, scale 0 to 100, 0 no effect, 100 complete control
[8] = postemergence, 62 g ai/ha, scale 0 to 100 (0 no effect, 100 complete control)
[9] = Postemergence, 500 g ai/ha, scale 0 to 100, 0 no effect, 100 complete control
[10] = Postemergence, 500 g ai/ha, scale 0 to 100
[11] = Postemergence, 250 g ai/ha, scale 0 to 100
[12] = Preemergence, 62 g ai/ha, scale 0 to 100
[13] = Preemergence, 125 g ai/ha, scale 0 to 100
[14] = Preemergence, 250 g ai/ha, scale 0 (no effect) to 100 (complete control)
[15] = Preemergence, 500 g ai/ha, scale 0 (no effect) to 100 (complete control)

## CCOC(=O)c1cccc(NC(=O)c2cc(C3(C)CC3)nn2CC)c1 [Compound 295]
canarygrass; [3]
  Plant response rating, Canarygrass: 35
canarygrass; [4]
  Plant response rating, Canarygrass: 35
canarygrass; [5]
  Plant response rating, Canarygrass: 25
canarygrass; [6]
  Plant response rating, Canarygrass: 30
Winter barley; [7]
  Plant response rating, Barley, Winter: 35
Winter barley; [3]
  Plant response rating, Barley, Winter: 35
Winter barley; [5]
  Plant response rating, Barley, Winter: 35
Winter barley; [8]
  Plant response rating, Barley, Winter: 35
windgrass; [3]
  Plant response rating, Windgrass: 65
windgrass; [4]
  Plant response rating, Windgrass: 60
windgrass; [6]
  Plant response rating, Windgrass: 50
Downy bromegrass [1]; [3]
  Plant response rating, Bromegrass, Downy: 45
Downy bromegrass [1]; [4]
  Plant response rating, Bromegrass, Downy: 45
Downy bromegrass [1]; [5]
  Plant response rating, Bromegrass, Downy: 45
Downy bromegrass [1]; [6]
  Plant response rating, Bromegrass, Downy: 45

## CCn1nc(C(C)(C)C)cc1C(=O)Nc1cccc(OS(=O)(=O)CC)c1 [Compound 408]
canarygrass; [3]
  Plant response rating, Canarygrass: 40
canarygrass; [9]
  Plant response rating, Canarygrass: 45
canarygrass; [4]
  Plant response rating, Canarygrass: 30
canarygrass; [6]
  Plant response rating, Canarygrass: 20
Winter barley; [10]
  Barley, Winter plant response rating: 40
Winter barley; [7]
  Plant response rating, Barley, Winter: 30
Winter barley; [3]
  Plant response rating, Barley, Winter: 35
Winter barley; [8]
  Plant response rating, Barley, Winter: 30
windgrass; [9]
  Plant response rating, Windgrass: 65
windgrass; [4]
  Plant response rating, Windgrass: 45
windgrass; [6]
  Plant response rating, Windgrass: 40
Downy bromegrass [1]; [3]
  Plant response rating, Bromegrass, Downy: 55
Downy bromegrass [1]; [9]
  Plant response rating, Bromegrass, Downy: 55
Downy bromegrass [1]; [4]
  Plant response rating, Bromegrass, Downy: 45
Downy bromegrass [1]; [6]
  Plant response rating, Bromegrass, Downy: 40

## CCn1nc(C2(C)CC2)cc1C(=O)Nc1cc(C(=O)N2CC=CC2)ccc1F [Compound 301]
canarygrass; [10]
  Canarygrass plant response rating: 50
canarygrass; [3]
  Plant response rating, Canarygrass: 50
canarygrass; [4]
  Plant response rating, Canarygrass: 45
canarygrass; [6]
  Plant response rating, Canarygrass: 35
Winter barley; [10]
  Barley, Winter plant response rating: 40
Winter barley; [7]
  Plant response rating, Barley, Winter: 30
Winter barley; [3]
  Plant response rating, Barley, Winter: 30
Winter barley; [8]
  Plant response rating, Barley, Winter: 30
windgrass; [10]
  Windgrass plant response rating: 40
windgrass; [3]
  Plant response rating, Windgrass: 35
windgrass; [4]
  Plant response rating, Windgrass: 35
windgrass; [6]
  Plant response rating, Windgrass: 35
Downy bromegrass [1]; [10]
  Bromegrass, Downy plant response rating: 40
Downy bromegrass [1]; [3]
  Plant response rating, Bromegrass, Downy: 40
Downy bromegrass [1]; [4]
  Plant response rating, Bromegrass, Downy: 40
Downy bromegrass [1]; [6]
  Plant response rating, Bromegrass, Downy: 40

## CCn1nc(C(C)(C)C)cc1C(=O)Nc1cc(OC(F)(F)F)ccc1F [Compound 338]
canarygrass; [3]
  Plant response rating, Canarygrass: 40
canarygrass; [9]
  Plant response rating, Canarygrass: 50
canarygrass; [4]
  Plant response rating, Canarygrass: 25
canarygrass; [6]
  Plant response rating, Canarygrass: 20
Winter barley; [10]
  Barley, Winter plant response rating: 40
Winter barley; [7]
  Plant response rating, Barley, Winter: 30
Winter barley; [3]
  Plant response rating, Barley, Winter: 35
Winter barley; [8]
  Plant response rating, Barley, Winter: 20
windgrass; [4]
  Plant response rating, Windgrass: 15
windgrass; [6]
  Plant response rating, Windgrass: 10
Downy bromegrass [1]; [3]
  Plant response rating, Bromegrass, Downy: 40
Downy bromegrass [1]; [9]
  Plant response rating, Bromegrass, Downy: 45
Downy bromegrass [1]; [4]
  Plant response rating, Bromegrass, Downy: 35
Downy bromegrass [1]; [6]
  Plant response rating, Bromegrass, Downy: 30

## CCc1nn(C(C)(C)C)cc1C(=O)Nc1cc(C(=O)N(C)C)ccc1F [Compound 222, N-[5-[(dimethylamino)carbonyl]-2-fluorophenyl]-1-(1,1-dimethylethyl)-3-ethyl-1H-pyrazole-4-carboxamide]
dallisgrass; [10]
  Plant response rating, Dallisgrass: 85
dallisgrass; [11]
  Plant response rating, Dallisgrass: 85
dallisgrass; [12]
  Plant response rating, Dallisgrass: 50
dallisgrass; [13]
  Plant response rating, Dallisgrass: 80
dallisgrass; [14]
  Plant response rating, Dallisgrass: 100
dallisgrass; [15]
  Plant response rating, Dallisgrass: 100
dallisgrass; [4]
  Plant response rating, Dallisgrass: 60
dallisgrass; [6]
  Plant response rating, Dallisgrass: 30
Large crabgrass; [10]
  Plant response rating, Crabgrass, Large: 100
Large crabgrass; [11]
  Plant response rating, Crabgrass, Large: 90
Large crabgrass; [12]
  Plant response rating, Crabgrass, Large: 70
Large crabgrass; [13]
  Plant response rating, Crabgrass, Large: 100
Large crabgrass; [14]
  Plant response rating, Crabgrass, Large: 100
Large crabgrass; [15]
  Plant response rating, Crabgrass, Large: 100
Large crabgrass; [4]
  Plant response rating, Crabgrass, Large: 80
Large crabgrass; [6]
  Plant response rating, Crabgrass, Large: 60
Common sowthistle; [10]
  Plant response rating, Sowthistle: 100
Common sowthistle; [11]
  Plant response rating, Sowthistle: 100
Common sowthistle; [12]
  Plant response rating, Sowthistle: 75
Common sowthistle; [13]
  Plant response rating, Sowthistle: 90
Common sowthistle; [14]
  Plant response rating, Sowthistle: 90
Common sowthistle; [15]
  Plant response rating, Sowthistle: 95
Common sowthistle; [4]
  Plant response rating, Sowthistle: 60
Common sowthistle; [6]
  Plant response rating, Sowthistle: 20
Southern sandbur; [10]
  Plant response rating, Sandbur: 80
Southern sandbur; [11]
  Plant response rating, Sandbur: 50
Southern sandbur; [12]
  Plant response rating, Sandbur: 0
Southern sandbur; [13]
  Plant response rating, Sandbur: 40
Southern sandbur; [14]
  Plant response rating, Sandbur: 70
Southern sandbur; [15]
  Plant response rating, Sandbur: 95
Southern sandbur; [4]
  Plant response rating, Sandbur: 10
Southern sandbur; [6]
  Plant response rating, Sandbur: 10
Annual bluegrass; [10]
  Plant response rating, Bluegrass: 90
Annual bluegrass; [11]
  Plant response rating, Bluegrass: 90
Annual bluegrass; [12]
  Plant response rating, Bluegrass: 90
Annual bluegrass; [13]
  Plant response rating, Bluegrass: 100
Annual bluegrass; [14]
  Plant response rating, Bluegrass: 100
Annual bluegrass; [15]
  Plant response rating, Bluegrass: 100
Annual bluegrass; [4]
  Plant response rating, Bluegrass: 80
Annual bluegrass; [6]
  Plant response rating, Bluegrass: 60
Common mallow; [11]
  Plant response rating, Mallow: 60
Common mallow; [12]
  Plant response rating, Mallow: 70
Common mallow; [13]
  Plant response rating, Mallow: 80
Common mallow; [14]
  Plant response rating, Mallow: 95
Common mallow; [15]
  Plant response rating, Mallow: 95
Common mallow; [4]
  Plant response rating, Mallow: 60
Common mallow; [6]
  Plant response rating, Mallow: 50
Downy bromegrass [2]; [11]
  Plant response rating, Bromegrass, Downy: 80
Downy bromegrass [2]; [12]
  Plant response rating, Bromegrass, Downy: 30
Downy bromegrass [2]; [13]
  Plant response rating, Bromegrass, Downy: 90
Downy bromegrass [2]; [14]
  Plant response rating, Bromegrass, Downy: 90
Downy bromegrass [2]; [15]
  Plant response rating, Bromegrass, Downy: 100
Downy bromegrass [2]; [4]
  Plant response rating, Bromegrass, Downy: 50
Downy bromegrass [2]; [6]
  Plant response rating, Bromegrass, Downy: 10
Green foxtail; [11]
  Plant response rating, Foxtail, Green: 80
Green foxtail; [12]
  Plant response rating, Foxtail, Green: 10
Green foxtail; [13]
  Plant response rating, Foxtail, Green: 50
Green foxtail; [14]
  Plant response rating, Foxtail, Green: 100
Green foxtail; [15]
  Plant response rating, Foxtail, Green: 100
Green foxtail; [4]
  Plant response rating, Foxtail, Green: 40
Green foxtail; [6]
  Plant response rating, Foxtail, Green: 10
Pitted morningglory; [10]
  Plant response rating, Morningglory: 90
Pitted morningglory; [11]
  Plant response rating, Morningglory: 60
Pitted morningglory; [13]
  Plant response rating, Morningglory: 30
Pitted morningglory; [14]
  Plant response rating, Morningglory: 40
Pitted morningglory; [15]
  Plant response rating, Morningglory: 95
Pitted morningglory; [4]
  Plant response rating, Morningglory: 40
Pitted morningglory; [6]
  Plant response rating, Morningglory: 20

## CCCCOc1cccc(NC(=O)c2cc(C(C)(C)C)nn2CC)c1 [Compound 137]
canarygrass; [10]
  Canarygrass plant response rating: 40
canarygrass; [3]
  Plant response rating, Canarygrass: 40
canarygrass; [4]
  Plant response rating, Canarygrass: 30
canarygrass; [6]
  Plant response rating, Canarygrass: 20
Winter barley; [10]
  Barley, Winter plant response rating: 30
Winter barley; [7]
  Plant response rating, Barley, Winter: 20
Winter barley; [3]
  Plant response rating, Barley, Winter: 20
Winter barley; [8]
  Plant response rating, Barley, Winter: 10
windgrass; [10]
  Windgrass plant response rating: 60
windgrass; [3]
  Plant response rating, Windgrass: 50
windgrass; [4]
  Plant response rating, Windgrass: 50
windgrass; [6]
  Plant response rating, Windgrass: 30
Downy bromegrass [1]; [10]
  Bromegrass, Downy plant response rating: 40
Downy bromegrass [1]; [3]
  Plant response rating, Bromegrass, Downy: 20
Downy bromegrass [1]; [4]
  Plant response rating, Bromegrass, Downy: 20
Downy bromegrass [1]; [6]
  Plant response rating, Bromegrass, Downy: 10

## CCn1nc(C(C)(C)C)cc1C(=O)Nc1cccc(C(=O)NCC2CC2)c1 [Compound 62]
canarygrass; [3]
  Plant response rating, Canarygrass: 40
canarygrass; [4]
  Plant response rating, Canarygrass: 30
canarygrass; [5]
  Plant response rating, Canarygrass: 0
canarygrass; [6]
  Plant response rating, Canarygrass: 0
Winter barley; [7]
  Plant response rating, Barley, Winter: 10
Winter barley; [11]
  Barley, Winter plant response rating: 10
Winter barley; [5]
  Plant response rating, Barley, Winter: 0
Winter barley; [8]
  Plant response rating, Barley, Winter: 10
windgrass; [3]
  Plant response rating, Windgrass: 50
windgrass; [4]
  Plant response rating, Windgrass: 40
windgrass; [6]
  Plant response rating, Windgrass: 30
Downy bromegrass [1]; [3]
  Plant response rating, Bromegrass, Downy: 30
Downy bromegrass [1]; [4]
  Plant response rating, Bromegrass, Downy: 20
Downy bromegrass [1]; [5]
  Plant response rating, Bromegrass, Downy: 10
Downy bromegrass [1]; [6]
  Plant response rating, Bromegrass, Downy: 20
